These results are taken from article PMC6710338, “Turning a Collagenesis-Inducing Peptide Into a Potent Antibacterial and Antibiofilm Agent Against Multidrug-Resistant Gram-Negative Bacteria” (Frontiers in Microbiology, 2019).

One assay has as its system E. coli ATCC 25922. The assay is described as follows: MIC, broth microdilution (CLSI), ATCC reference strain. In kind it is cell-based, Escherichia coli. Conditions: E. coli ATCC 25922. On the procedure:
(§1) The minimum inhibitory concentration (MIC) of synthetic peptides was determined using the broth microdilution method in cation-adjusted Mueller-Hinton broth (MHB2 – Sigma-Aldrich, St. Louis, MO, United States), according to the recommendations of the Clinical and Laboratory Standards Institute ([CLSI, 2012]), against four reference strains, namely, P. aeruginosa ATCC 27853, E. coli ATCC 25922, S. aureus ATCC 25923 and Enterococcus faecalis ATCC 29212. MIC values of peptide 3.1-PP4 were also determined against MDR clinical isolates of P. aeruginosa (PA002, PA004, Pa3, Pa4), E. coli (Ec1, Ec2, EC001, EC002, EC003) and K. pneumoniae (KP004, KP007, KP010). The peptides were tested in the concentration range of 1–1024 μg/mL. The minimum bactericidal concentration (MBC) was determined as previously reported ([Bessa et al., 2018]). According to CLSI guidelines for antimicrobial susceptibility testing, MIC values were determined for all peptides against ATCC reference strains of two Gram-positive (S. aureus ATCC 25923 and E. faecalis ATCC 29212), and two Gram-negative (P. aeruginosa ATCC 27853 and E. coli ATCC 25922) bacterial species, and are shown in Table 2.
Background: In broth dilution the organism is exposed to a series of concentrations in liquid medium.

Assay [1] concerns MDR K. pneumoniae isolates (KP004, KP007, KP010). The assay is described as follows: Inhibition of biofilm formation, crystal violet assay. Conditions: in TSB. The class given is cell-based, Klebsiella pneumoniae. As to the method: The ability of peptide 3.1-PP4 to inhibit the biofilm formation by three P. aeruginosa isolates (PA002, PA004, Pa3) and by three K. pneumoniae isolates (KP004, KP007 and KP010) was assessed at concentrations equal to the MIC, 1/2 × MIC and 1/4 × MIC in tryptic soy broth – (TSB – Liofilchem s.r.l., Italy) using the crystal violet assay as reported by [Gomes et al. (2014)]. Two independent experiments were performed in triplicate.
Some of the MDR isolates of P. aeruginosa and K. pneumoniae were randomly selected to form biofilms in the absence (controls) and presence (at MIC, 1/2 × MIC and 1/4 × MIC) of the peptide 3.1-PP4. In this assay, the test compounds were used at sub-inhibitory concentrations, since if they had been present at the MIC or higher concentrations, bacteria would be killed before starting to produce the biofilms.
FIGURE 1 Biofilm biomass quantitation of biofilms formed in the presence of peptide 3.1-PP4. Biofilms of three MDR P. aeruginosa (PA002, Pa3, and PA004) and of three MDR K. pneumoniae (KP004, KP007, and KP010) were formed in the presence of the peptide at three different concentrations, MIC, 1/2 × MIC, and 1/4 × MIC. Control biofilms were grown in absence of the peptide. Two independent experiments were performed in triplicate. Error bars represent SD. […]

A further assay deals with P. aeruginosa ATCC 27853. Put plainly: MIC, broth microdilution (CLSI), ATCC reference strain. In kind it is cell-based, Pseudomonas aeruginosa. As to the method:
as §1

Peptide text beside a SMILES is read from it.

For the molecule `CC(C)C[C@H](NC(=O)[C@H](Cc1c[nH]c2ccccc12)NC(=O)[C@H](CCCCN)NC(=O)[C@H](CC(C)C)NC(=O)[C@H](CC(C)C)NC(=O)[C@H](CCCCN)NC(=O)[C@@H](N)CCCCN)C(=O)N[C@@H](CC(C)C)C(=O)N[C@@H](CCCCN)C(=O)N[C@@H](CC(C)C)C(=O)N[C@@H](CC(C)C)C(=O)N[C@@H](CCCCN)C(=O)N[C@H](C(=O)N[C@H](C(=O)N[C@@H](CCCCN)C(=O)N[C@@H](CO)C(N)=O)[C@@H](C)O)[C@@H](C)O` [Peptide 3.1-PP4] (H-KKLLKWLLKLLKTTKS-NH2; N-terminus assumed), the MIC in the assay on E. coli ATCC 25922 (broth microdilution in MHB2, CLSI, value in parentheses) worked out at 1.0 µM; in the assay on E. coli ATCC 25922 (broth microdilution in cation-adjusted Mueller-Hinton broth (MHB2), CLSI, range tested 1–1024 μg/mL) it was 2 µg/mL; against P. aeruginosa ATCC 27853 (ATCC 27853), 2.1 µM; in the assay with P. aeruginosa ATCC 27853 (P. aeruginosa ATCC 27853, broth microdilution in MHB2, CLSI, range tested 1–1024 μg/mL) it was 4 µg/mL; in the assay with P. aeruginosa ATCC 27853 (P. aeruginosa ATCC 27853, broth microdilution in MHB2, CLSI, value in parentheses), 2 µM. For the same molecule, the “biofilm formation (crystal violet absorbance at 595 nm)” value in assay [1] (peptide at MIC, K. pneumoniae isolates) was “no biofilm was actually produced”; in assay [1] (peptide at sub-inhibitory concentrations (1/2 and 1/4 of the MIC), vs control biofilm), “able to reduce the biofilm formed”.

As usually defined, the MIC is the least concentration at which growth counts as inhibited.
